Experimental data as given in patent publication US6011010A, “Cytotoxic and antiviral compound” (Pharma Mar, s.a., priority 1997, dated 2000).
Values after ≈ are worked out from the molar mass of the structure shown.

What was measured:
[1] = In vitro cytotoxicity, human lung carcinoma A-549 cell culture; assay type: cell-based; conditions: read-out: Cytotoxicity μg/mL (IC50)
Experimental: (§1) The antitumor activities of this compound have been determinated "in vitro" in cell cultures of human lung carcinoma A-549 and human colon carcinoma HT-29. The procedure was carried out using the methodology described by Raymond J. Bergeron et al., Biochem. Biophys. Res. Comm. 1984, 121 (3), 848-854 and by Alan C. Schroeder et al., J. Med. Chem. 1981, […] 1078-1083.

Saccharomyces cerevisiae = conditions: 50 μg/disk
HSV II = conditions: Mv 1 Lu cells
[2] = In vitro cytotoxicity, human colon carcinoma HT-29 cell culture; assay type: cell-based; conditions: read-out: Cytotoxicity μg/mL (IC50)
Experimental: as §1

HSV-1 = conditions: CV-1 cells

SMILES: C/C=C1\NC(=O)[C@H](Cc2ccccc2)NC(=O)[C@@H](C(C)C)NC(=O)[C@@H]([C@@H](C)CC)NC(=O)[C@H](NC(=O)[C@H](NC(=O)[C@H](CCCN)NC(=O)[C@H]2CCCN2C(=O)[C@H](NC(=O)[C@@H](NC(=O)[C@@H](NC(=O)[C@H](NC(=O)CCCC(C)C)C(C)C)[C@@H](C)O)C(C)C)C(C)C)[C@@H](C)CC)[C@@H](C)OC(=O)[C@H](C(C)C)NC1=O [Kahalalide F]
- Antiviral μg/mL (M.I.C.) (VSV): > 8
- IC50 [1]: 2.5 µg/mL (≈ 1.69 µM)
- Antifungal 6 mm disk (zone) (Saccharomyces cerevisiae): neg
- Antiviral % reduction (HSV II; at 0.5 μg/mL): 95%
- Antiviral μg/mL (M.I.C.) (HSV II; concentration giving the printed % reduction): 0.5 µg/mL
- IC50 [2]: 0.25 to 0.5 µg/mL (≈ 0.169 to 0.338 µM)
- Antiviral μg/mL (M.I.C.) (HSV-1): > 8 µg/mL
